Values quoted from earlier work in patent publication US20110129540A1, “Polymer of acrylic or methacrylic type comprising alpha-tocopherol grafts” (Flamel Technologies, priority 2009, published 2011).
Values after ≈ are worked out from the molar mass of the structure shown.

Conditions: no polymer

Q: With `COc1ccccc1OCCNCC(O)COc1cccc2[nH]c3ccccc3c12` (stereo not shown) [carvedilol] as the compound, how does the “Solubility in pure water” value read?
A: 50 mg/L (≈ 123 µM)
